From patent publication US20260085315A1, “POLYNUCLEOTIDE COMPOSITIONS AND METHODS FOR TREATMENT OF CANCER” (APTAH BIO, INC., priority 2023, published 2026)
Values joined by “and” are separate entries in the source; they are usually repeats but may differ in a detail not shown here. Equal entries are not always repeated. “Also recorded” adds a separate entry of the source.

Legend:
Assay type in all cases: in vivo, athymic nude mice
[1] = test system: Human Glioblastoma Cancer (U-87MG) xenograft; assay: Human glioblastoma xenograft tumor growth; details: for tumor reduction in relation to the negative control: APT20TTMG 20 mg/kg i.v. q3d, TMZ 5 mg/kg p.o. daily
Experimental: Subcutaneous inoculation of the tumorigenic Human Glioblastoma Cancer Cell line (U-87MG) results in the formation of solid tumor in athymic nude mice. Under pathogen free conditions, the tumor retains its own characteristics and grows using the growth factors supplied by the host animal. The ability of administered ASMO1 to inhibit the growth of tumor can be a valuable tool to evaluate its efficacy as an anti-tumor agent. Measurement of tumor size at defined intervals of time generates data that can be used to calculate various end point parameters derived from tumor and understand the potency of the test compounds.
Human glioblastoma cancer cells (U-87MG) were cultured and expanded in EMEM (Eagle's Minimum Essential Medium) supplemented with 10% Fetal Bovine Serum (FBS) at 37° C. and 5% CO2. The cells growing at log phase were harvested by trypsinization and centrifuged for 3 minutes at 800 rpm to form a pellet. The pellet was further washed with PBS. Cell suspension stock was prepared to obtain the required cell count. Before cell inoculation, cell viability was determined using trypan blue. 25 μL of cell suspension was stained with 25 μL of trypan blue and viable cells were counted using Neubauer's chamber. Cell number was adjusted by adding serum free media to achieve desired concentration, i.e., 10×10^7/mL.
Cells were diluted such that the concentration of the cells was 10 million cells/100 μL of serum free medium. Overnight thawed Matrigel and cells with medium were mixed 1:1 and a total volume of 200 μL was injected subcutaneously to the donor animals (n=5) at flank region.
Donor animals were monitored for solid tumor growth for at least 3-4 weeks. Tumor size was measured using digital caliper (MITUTOYO, Japan, CP-15Mx) and volume was calculated by using the formula: (L*W2)/2. Once the tumor reached required size ˜500 mm^3, the donor animals were humanely sacrificed, the tumor was harvested and fragmented into ˜30 mg size and implanted subcutaneously to experimental animals (n=50) using the device. All the animals was monitored alternate day for tumor growth/size.
Once the tumor size reached ˜100 mm^3, animals were selected and randomized by stratification method using tumor size into three groups (G1-G3). Treatment for G1-G3 was initiated at this stage. Each group was comprised of 8 animals.
• G1 was served as vehicle control group and treated with normal saline at the dose of 5 mL/kg, daily, intravenously for 3 weeks. • G2 was served as Reference Item treated group and treated with TMZ at the dose of 5 mg/kg, p.o., daily for 3 weeks. • G3 was treated with APT20TTMG at the dose of 20 mg/kg, intravenously, every third day (q3d) for 3 weeks.
Body weight and tumor size were measured weekly twice using digital caliper. At termination, blood was collected through retro-orbital route. Serum/plasma was separated and stored at deep freezer (−20° C.). Post blood collection, animals were humanely sacrificed by CO2 asphyxiation as per latest guidelines issued by CPCSEA. All the vital organ (brain, kidney, liver, lungs, heart) and tumor were dissected out. Vital organs were fixed in 10% NBF and stored. Tumor tissue was dissected out, weighed and portion of tumor tissue was fixed in 10% NBF and another portion is snap frozen and stored at deep freezer (−80° C.).
As shown in FIG. 34A-C, tumor fragments from the U-87MG cell line were implanted in the animals and once the tumor size reached ˜100 mm^3 animals were randomized into 3 experimental groups (G1, G2, and G3). G1: Vehicle, (G2) Reference Item Temozolomide, and (G3) APT20TTMG for a total of 22 days. (A) The tumor volume of the animals was measured twice/a week. (B) Animals were weighed throughout the experiment and the change in weight gain compared to pre-treatment weight was plotted. (C) After the euthanasia of the animals, the tumors were removed and weighed.

[2] = test system: Human Glioblastoma Cancer (U-87MG) xenograft; assay: Histopathology of tumor samples with scoring; design: key to Score: Grade: 1: I; 2: II; 3: III; 4: IV; key to Score: Connective tissue stroma: 1: Minimal Fibrosis; 2: Mild Fibrosis; 3: Moderate Fibrosis; 4: Prominent; key to Score: N:C ratio: 3: High; 2: Low to High; 1: Low; key to Score: Apoptosis / Score: Lipid content: 4: Minimal; 3: Mild; 2: Moderate; 1: Prominent; details: individual animals; G3 APT20TTMG, G2 TMZ
Source text: (§1) The fixed tissues were processed for routine paraffin embedding followed by sectioning (3-6 micron). The sections were stained with hematoxylin and eosin. The prepared slides were examined under microscope by the study pathologist to record histopathological findings in tumor samples, related to capsule formation, cell type, connective tissue stroma, apoptosis, necrosis, lipid content, nucleus-to-cytoplasmic (N:C) ratio, nuclei mitotic figures, tumor grade, and level of differentiation. Each histopathological finding and tumor volume were assigned a score ranging from 1 to 4 (Table 7). The sum of these scores for each sample was used to infer the tumor aggressiveness.

[3] = test system: Human Glioblastoma Cancer (U-87MG) xenograft; assay: Histopathology of tumor samples with scoring; design: key: 4: Minimal; 3: Mild; 2: Moderate; 1: Prominent; details: individual animals; G3 APT20TTMG, G2 TMZ
Source text: as §1

[4] = test system: Human Glioblastoma Cancer (U-87MG) xenograft; assay: Histopathology of tumor samples with scoring; design: key: 1: Few; 2: Moderate; 3: Large; details: individual animals; G3 APT20TTMG, G2 TMZ
Source text: as §1

[5] = test system: Human Glioblastoma Cancer (U-87MG) xenograft; assay: Histopathology of tumor samples with scoring; design: key: 1: Minimal Fibrosis; 2: Mild Fibrosis; 3: Moderate Fibrosis; 4: Prominent; details: individual animals; G3 APT20TTMG, G2 TMZ
Source text: as §1

SMILES: Cn1nnc2c(C(N)=O)ncn2c1=O [TMZ, Temozolomide, reference compound]
- tumor reduction in relation to the negative control ([1]; day 20): 41.3±11.1%
- tumor reduction in relation to the negative control ([1]; day 22): 31.1±13.4%
- Volume (tumor) ([1]; individual animals, G3 APT20TTMG, G2 TMZ): Volume 1593.8; also recorded: Volume 113.1; also recorded: Volume 937.9; also recorded: Volume 339.1; also recorded: Volume 1447.2; also recorded: Volume 830.6; also recorded: Volume 1277.9; also recorded: Volume 1479.7
- Histopathological findings: Grade [2]: Grade- 2; also recorded: Grade- 3
- Score: Apoptosis [2]: 3 (7×) and 2
- Score: Connective tissue stroma [2]: 3 (2×) and 2 (5×) and 1
- Score: Grade [2]: 2 (5×) and 3 (3×)
- Score: Lipid content [2]: 3 (4×) and 2 and 1 (3×)
- Score: N:C ratio [2]: 2
- Score: Volume Tumor [2]: 4 (>1500) and 1 (<500) (2×) and 2 (500-1000) (2×) and 3 (1000-1500) (3×)
- Score: Necrosis [3]: 3
- Score: Mitotic figures [4]: 3 (4×) and 1 (4×)
- Score: Necrosis [5]: 4
